Results reported in PubChem BioAssay (NCI).
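In this assay, cells in 96-well plates receive the compound at five concentrations for 48 hours. Endpoints are linearly interpolated between the surrounding concentrations. At the GI50, growth is halved. TGI marks complete inhibition of growth.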

What was measured:
Experiment in all cases: NCI anticancer screen, dose series, 48 h
EKVX NSCLC = tested on: EKVX NSCLC
HS 578T breast = tested on: HS 578T breast
SK-MEL-28 melanoma = tested on: SK-MEL-28 melanoma
NCI-H522 lung = tested on: NCI-H522 lung
MALME-3M melanoma = tested on: MALME-3M melanoma
HL-60(TB) leukemia = tested on: HL-60(TB) leukemia
HT29 colon = tested on: HT29 colon
UACC-257 melanoma = tested on: UACC-257 melanoma
CCRF-CEM leukemia = tested on: CCRF-CEM leukemia
KM12 colon = tested on: KM12 colon
OVCAR-3 ovarian = tested on: OVCAR-3 ovarian
SK-OV-3 ovarian = tested on: SK-OV-3 ovarian
UO-31 renal = tested on: UO-31 renal
NCI/ADR-RES ovarian = tested on: NCI/ADR-RES ovarian
SF-539 CNS = tested on: SF-539 CNS
HOP-62 NSCLC = tested on: HOP-62 NSCLC
HOP-92 NSCLC = tested on: HOP-92 NSCLC
HCT-15 colon = tested on: HCT-15 colon
SF-268 CNS = tested on: SF-268 CNS
RPMI-8226 leukemia = tested on: RPMI-8226 leukemia
IGROV1 ovarian = tested on: IGROV1 ovarian
TK-10 renal = tested on: TK-10 renal
SN12C renal = tested on: SN12C renal
NCI-H226 lung = tested on: NCI-H226 lung
ACHN renal = tested on: ACHN renal
MDA-MB-231 breast = tested on: MDA-MB-231 breast
A498 renal = tested on: A498 renal
UACC-62 melanoma = tested on: UACC-62 melanoma
COLO 205 colon = tested on: COLO 205 colon
A549 NSCLC = tested on: A549 NSCLC
SNB-19 CNS = tested on: SNB-19 CNS
SNB-75 CNS = tested on: SNB-75 CNS
SK-MEL-2 melanoma = tested on: SK-MEL-2 melanoma
MDA-MB-435 = tested on: MDA-MB-435
CAKI-1 renal = tested on: CAKI-1 renal
RXF 393 renal = tested on: RXF 393 renal
SR leukemia = tested on: SR leukemia
NCI-H460 lung = tested on: NCI-H460 lung
HCC-2998 colon = tested on: HCC-2998 colon
NCI-H23 lung = tested on: NCI-H23 lung
U251 CNS = tested on: U251 CNS
786-0 renal = tested on: 786-0 renal
M14 melanoma = tested on: M14 melanoma
BT-549 breast = tested on: BT-549 breast
OVCAR-8 ovarian = tested on: OVCAR-8 ovarian
T-47D breast = tested on: T-47D breast
MOLT-4 leukemia = tested on: MOLT-4 leukemia
OVCAR-5 ovarian = tested on: OVCAR-5 ovarian
MCF7 breast = tested on: MCF7 breast
SF-295 CNS = tested on: SF-295 CNS
OVCAR-4 ovarian = tested on: OVCAR-4 ovarian
PC-3 prostate = tested on: PC-3 prostate
SW-620 colon = tested on: SW-620 colon
SK-MEL-5 melanoma = tested on: SK-MEL-5 melanoma
K-562 leukemia = tested on: K-562 leukemia
LOX IMVI melanoma = tested on: LOX IMVI melanoma
DU-145 prostate = tested on: DU-145 prostate
HCT-116 colon = tested on: HCT-116 colon

O=C(Nc1cccc(-n2ccc3c(NC(=O)c4ccccc4)nccc32)c1)Nc1ccc(Cl)c(C(F)(F)F)c1
GI50 (EKVX NSCLC): 633 nM | TGI (EKVX NSCLC): > 100000 nM | GI50 (HS 578T breast): 283 nM | TGI (HS 578T breast): 3250 nM | GI50 (SK-MEL-28 melanoma): 651 nM | TGI (SK-MEL-28 melanoma): > 92000 nM | GI50 (NCI-H522 lung): 211 nM | TGI (NCI-H522 lung): 642 nM | GI50 (MALME-3M melanoma): 1070 nM | TGI (MALME-3M melanoma): 47500 nM | GI50 (HL-60(TB) leukemia): 332 nM | GI50 (HT29 colon): 327 nM | TGI (HT29 colon): 1400 nM | GI50 (UACC-257 melanoma): 1870 nM | TGI (UACC-257 melanoma): 20900 nM | GI50 (CCRF-CEM leukemia): 332 nM | TGI (CCRF-CEM leukemia): > 100000 nM | GI50 (KM12 colon): 343 nM | TGI (KM12 colon): 2680 nM | GI50 (OVCAR-3 ovarian): 240 nM | TGI (OVCAR-3 ovarian): 554 nM | GI50 (SK-OV-3 ovarian): 346 nM | TGI (SK-OV-3 ovarian): 20600 nM | GI50 (UO-31 renal): 1350 nM | TGI (UO-31 renal): > 100000 nM | GI50 (NCI/ADR-RES ovarian): 252 nM | TGI (NCI/ADR-RES ovarian): 667 nM | GI50 (SF-539 CNS): 308 nM | TGI (SF-539 CNS): 3980 nM | GI50 (HOP-62 NSCLC): 736 nM | TGI (HOP-62 NSCLC): > 44600 nM | GI50 (HOP-92 NSCLC): 860 nM | TGI (HOP-92 NSCLC): 5740 nM | GI50 (HCT-15 colon): 339 nM | TGI (HCT-15 colon): 14500 nM | GI50 (SF-268 CNS): 696 nM | TGI (SF-268 CNS): > 40000 nM | GI50 (RPMI-8226 leukemia): 424 nM | TGI (RPMI-8226 leukemia): 7020 nM | GI50 (IGROV1 ovarian): 662 nM | TGI (IGROV1 ovarian): > 100000 nM | GI50 (TK-10 renal): 1190 nM | TGI (TK-10 renal): 14600 nM | GI50 (SN12C renal): 820 nM | TGI (SN12C renal): > 100000 nM | GI50 (NCI-H226 lung): 865 nM | TGI (NCI-H226 lung): > 28500 nM | GI50 (ACHN renal): 670 nM | TGI (ACHN renal): 8480 nM | GI50 (MDA-MB-231 breast): 420 nM | TGI (MDA-MB-231 breast): 14200 nM | GI50 (A498 renal): 210 nM | TGI (A498 renal): 1350 nM | GI50 (UACC-62 melanoma): 490 nM | TGI (UACC-62 melanoma): 20000 nM | GI50 (COLO 205 colon): 273 nM | TGI (COLO 205 colon): 737 nM | GI50 (A549 NSCLC): 485 nM | TGI (A549 NSCLC): > 100000 nM | GI50 (SNB-19 CNS): 494 nM | TGI (SNB-19 CNS): > 100000 nM | GI50 (SNB-75 CNS): 240 nM | TGI (SNB-75 CNS): 769 nM | GI50 (SK-MEL-2 melanoma): 358 nM | TGI (SK-MEL-2 melanoma): 2620 nM | GI50 (MDA-MB-435): 227 nM | TGI (MDA-MB-435): 605 nM | GI50 (CAKI-1 renal): 718 nM | TGI (CAKI-1 renal): 9380 nM | GI50 (RXF 393 renal): 224 nM | TGI (RXF 393 renal): 693 nM | GI50 (SR leukemia): 367 nM | TGI (SR leukemia): > 23300 nM | GI50 (NCI-H460 lung): 337 nM | TGI (NCI-H460 lung): 18300 nM | GI50 (HCC-2998 colon): 413 nM | TGI (HCC-2998 colon): 15200 nM | GI50 (NCI-H23 lung): 593 nM | TGI (NCI-H23 lung): 5210 nM | GI50 (U251 CNS): 495 nM | TGI (U251 CNS): 17700 nM | GI50 (786-0 renal): 589 nM | TGI (786-0 renal): > 100000 nM | GI50 (M14 melanoma): 315 nM | TGI (M14 melanoma): 1260 nM | GI50 (BT-549 breast): 697 nM | TGI (BT-549 breast): 10400 nM | GI50 (OVCAR-8 ovarian): 431 nM | TGI (OVCAR-8 ovarian): > 39600 nM | GI50 (T-47D breast): 2880 nM | TGI (T-47D breast): > 100000 nM | GI50 (MOLT-4 leukemia): 885 nM | TGI (MOLT-4 leukemia): > 100000 nM | GI50 (OVCAR-5 ovarian): 482 nM | TGI (OVCAR-5 ovarian): > 100000 nM | GI50 (MCF7 breast): 373 nM | TGI (MCF7 breast): > 30700 nM | GI50 (SF-295 CNS): 294 nM | TGI (SF-295 CNS): 1340 nM | GI50 (OVCAR-4 ovarian): 971 nM | TGI (OVCAR-4 ovarian): > 100000 nM | GI50 (PC-3 prostate): 432 nM | TGI (PC-3 prostate): > 36100 nM | GI50 (SW-620 colon): 395 nM | TGI (SW-620 colon): > 100000 nM | GI50 (SK-MEL-5 melanoma): 317 nM | TGI (SK-MEL-5 melanoma): 1480 nM | GI50 (K-562 leukemia): 386 nM | TGI (K-562 leukemia): > 100000 nM | GI50 (LOX IMVI melanoma): 649 nM | TGI (LOX IMVI melanoma): 31600 nM | GI50 (DU-145 prostate): 338 nM | TGI (DU-145 prostate): 2280 nM | GI50 (HCT-116 colon): 372 nM | TGI (HCT-116 colon): 13700 nM
